In publication PMC4773869, “Influence of plasma-activated compounds on melanogenesis and tyrosinase activity” (Scientific Reports, 2016):

Molecular target: T1, mushroom tyrosinase (Agaricus bisporus, UniProt C7FF04)
Assay: Circular dichroism analysis of the secondary structure of mushroom tyrosinase
Conditions: tyrosinase + as-synthesized compound (0 min plasma), 0.1 mM; enzyme alone 7
Method: The structural changes in tyrosinase after incubation with ED and PAED were plotted in Fig. 5. […] We observed that the control tyrosinase enzyme has 16% α-helix, 33% β-sheets, 7% turn, and 44% random coil. After the interaction with 4a, the amount of α-helix changed to 15% and β-sheets changed to 35%. On the other hand, after the plasma treatment of 4a the amount of α-helix changed to 17% and β-sheets changed to 31%. While, after interacting with 4b, the amount of α-helix is 16.0%, β-sheets 29%, turn 10%, and random coil is 45.0%. However, plasma-activated 4b interacts differently with tyrosinase enzyme, showing 16% α-helix, 33% β-sheets, 6% turn, and 45% random coil. When 6a ED interacted with tyrosinase enzyme, we observed 20% α-helix, 25% β-sheets, 11.0% turn, and 44% random coil. However, 6a PAED interacts with tyrosinase enzyme, the α-helix changed to 19%, β-sheets 28%, turn 9%, and random coil 44%. […] To obtain further detail on the interaction of the ED with tyrosinase enzyme, we studied the molecular docking. For the CD spectroscopic studies[65][66][67] a J-815 spectrophotometer (Jasco, Japan) was used, equipped with a Peltier system that controlled the temperature. (1S)-(+)-10-camphorsulfonic acid (Aldrich, Milwaukee, WI) with a molar extinction coefficient of 34.5 M/cm at 285 nm and a 2.36 M/cm molar ellipticity (θ) at 295 nm was used for the CD calibrations. The samples were pre-equilibrated at the desired temperature for 15 min, and the scan speed was fixed for adaptative sampling (error F 0.01) with a response time of 1 sec and a 1 nm bandwidth. The secondary structure of the mushroom tyrosinase was monitored by using a 1.0 cm path length cuvette. The mushroom tyrosinase (0.2 mg/ml) was prepared in phosphate buffer (20 mM) at pH 6.8 for CD analysis. We used the 0.1 mM concentration of all derivatives in 1 ml buffer solution, with or without 10 min plasma treatment. All spectra were collected in triplicate from 200 to 250 nm and the background was corrected against the buffer (blank). The percentages of secondary structures of proteins were calculated using inbuilt Jasco software.
Target sequence in this assay (C7FF04 2-392): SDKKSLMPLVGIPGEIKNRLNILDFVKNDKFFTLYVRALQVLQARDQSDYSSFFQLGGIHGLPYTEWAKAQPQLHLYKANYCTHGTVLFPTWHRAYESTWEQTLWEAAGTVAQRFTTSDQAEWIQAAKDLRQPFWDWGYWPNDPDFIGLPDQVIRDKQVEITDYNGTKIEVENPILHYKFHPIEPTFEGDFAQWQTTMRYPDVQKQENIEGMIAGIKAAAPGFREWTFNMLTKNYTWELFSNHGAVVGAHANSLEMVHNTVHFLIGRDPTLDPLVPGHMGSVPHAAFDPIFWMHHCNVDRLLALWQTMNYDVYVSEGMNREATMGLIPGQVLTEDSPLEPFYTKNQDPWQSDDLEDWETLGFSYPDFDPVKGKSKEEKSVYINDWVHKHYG

Turn % of tyrosinase [%]	SMILES
7	C=CCc1ccc(OC(=O)COC(=O)c2ccc(O)c(O)c2)c(OC)c1 [4d, 2-[2-methoxy-4-(prop-2-en-1-yl)phenoxy]-2-oxoethyl 3,4-dihydroxybenzoate]
6	C=CCc1ccc(OC(=O)COC(=O)c2cc(O)cc(O)c2)c(OC)c1 [4e, 2-[2-methoxy-4-(prop-2-en-1-yl)phenoxy]-2-oxoethyl 3,5-dihydroxybenzoate]
3	C=CCc1ccc(OC(=O)COC(=O)/C=C/c2ccc(Cl)cc2)c(OC)c1 [6b, 2-[2-methoxy-4-(prop-2-en-1-yl)phenoxy]-2-oxoethyl(2E)-3-(4-chloroyphenyl)prop-2-enoate]

Same assay, conditions: tyrosinase + as-synthesized compound (0 min plasma), 0.1 mM; enzyme alone 16

α-helix % of tyrosinase [%]	SMILES
15	C=CCc1ccc(OC(=O)COC(=O)c2ccc(O)c(O)c2)c(OC)c1 [4d, 2-[2-methoxy-4-(prop-2-en-1-yl)phenoxy]-2-oxoethyl 3,4-dihydroxybenzoate]
15	C=CCc1ccc(OC(=O)COC(=O)c2cc(O)cc(O)c2)c(OC)c1 [4e, 2-[2-methoxy-4-(prop-2-en-1-yl)phenoxy]-2-oxoethyl 3,5-dihydroxybenzoate]
15	C=CCc1ccc(OC(=O)COC(=O)/C=C/c2ccc(Cl)cc2)c(OC)c1 [6b, 2-[2-methoxy-4-(prop-2-en-1-yl)phenoxy]-2-oxoethyl(2E)-3-(4-chloroyphenyl)prop-2-enoate]

Same assay, conditions: tyrosinase + as-synthesized compound (0 min plasma), 0.1 mM; enzyme alone 33

β-sheet % of tyrosinase [%]	SMILES
33	C=CCc1ccc(OC(=O)COC(=O)c2ccc(O)c(O)c2)c(OC)c1 [4d, 2-[2-methoxy-4-(prop-2-en-1-yl)phenoxy]-2-oxoethyl 3,4-dihydroxybenzoate]
33	C=CCc1ccc(OC(=O)COC(=O)c2cc(O)cc(O)c2)c(OC)c1 [4e, 2-[2-methoxy-4-(prop-2-en-1-yl)phenoxy]-2-oxoethyl 3,5-dihydroxybenzoate]
37	C=CCc1ccc(OC(=O)COC(=O)/C=C/c2ccc(Cl)cc2)c(OC)c1 [6b, 2-[2-methoxy-4-(prop-2-en-1-yl)phenoxy]-2-oxoethyl(2E)-3-(4-chloroyphenyl)prop-2-enoate]

Same assay, conditions: tyrosinase + as-synthesized compound (0 min plasma), 0.1 mM; enzyme alone 44

Random coil % of tyrosinase [%]	SMILES
45	C=CCc1ccc(OC(=O)COC(=O)c2ccc(O)c(O)c2)c(OC)c1 [4d, 2-[2-methoxy-4-(prop-2-en-1-yl)phenoxy]-2-oxoethyl 3,4-dihydroxybenzoate]
46	C=CCc1ccc(OC(=O)COC(=O)c2cc(O)cc(O)c2)c(OC)c1 [4e, 2-[2-methoxy-4-(prop-2-en-1-yl)phenoxy]-2-oxoethyl 3,5-dihydroxybenzoate]
45	C=CCc1ccc(OC(=O)COC(=O)/C=C/c2ccc(Cl)cc2)c(OC)c1 [6b, 2-[2-methoxy-4-(prop-2-en-1-yl)phenoxy]-2-oxoethyl(2E)-3-(4-chloroyphenyl)prop-2-enoate]

System: B16F10 cells
Assay: Intracellular melanin content measurement
Format: cell-based, murine
Conditions: Mus musculus, B16-F10; 250 μg/ml; absence of α-MSH; negative control; read-out: inhibition of melanin synthesis compared to the control
Method: Melanoma (1.5 × 10^5) cells were seeded in cell culture plates and allowed to attach for 24 hr. Then each eugenol derivative was added and tested separately for melanin activation after 24 hr of incubation. After incubation, cells were detached using trypsin/EDTA and centrifuged at 1000 rpm for 5 min to collect the cell pellets. The cell pellets were solubilized in 1N NaOH at 60 °C for 1 hr. The melanin content was measured spectrophotometrically at 405 nm wavelength using a microplate reader (BioTek, synergy HT)[56]. […] Plasma-treated and non-plasma-treated ED (4b and 6a) were added to the cells, pre-incubated with or without α-MSH (100 nM) for a further 24 hr and melanin content was assayed as described above. Kojic acid can inhibit and α-MSH can stimulate the melanin in the cells, therefore we used them as negative and positive controls.

SMILES	inhibition at 250 µg/mL [%]
O=c1cc(CO)occ1O [Kojic acid, reference compound]	~12

Same assay, conditions: as-synthesized ED; no α-MSH; concentration not given

SMILES	melanin, % of control (normalized to 100%) [%]
C=CCc1ccc(OC(=O)COC(=O)c2ccc(O)c(O)c2)c(OC)c1 [4d, 2-[2-methoxy-4-(prop-2-en-1-yl)phenoxy]-2-oxoethyl 3,4-dihydroxybenzoate]	110
C=CCc1ccc(OC(=O)COC(=O)c2cc(O)cc(O)c2)c(OC)c1 [4e, 2-[2-methoxy-4-(prop-2-en-1-yl)phenoxy]-2-oxoethyl 3,5-dihydroxybenzoate]	115
C=CCc1ccc(OC(=O)COC(=O)/C=C/c2ccc(Cl)cc2)c(OC)c1 [6b, 2-[2-methoxy-4-(prop-2-en-1-yl)phenoxy]-2-oxoethyl(2E)-3-(4-chloroyphenyl)prop-2-enoate]	119

Same assay, conditions: with or without plasma treatment, presence or absence of α-MSH (Fig. 10)

SMILES	melanin stimulation (in words)
C=CCc1ccc(OC(=O)COC(=O)/C=C/c2ccc(Cl)cc2)c(OC)c1 [6b, 2-[2-methoxy-4-(prop-2-en-1-yl)phenoxy]-2-oxoethyl(2E)-3-(4-chloroyphenyl)prop-2-enoate]	Melanin stimulation was observed

System: not given
Assay: not given
Conditions: not given

melting point [°C]	SMILES
148 to 151	C=CCc1ccc(OC(=O)COC(=O)c2ccc(O)c(O)c2)c(OC)c1 [4d, 2-[2-methoxy-4-(prop-2-en-1-yl)phenoxy]-2-oxoethyl 3,4-dihydroxybenzoate]
107 to 109	C=CCc1ccc(OC(=O)COC(=O)c2cc(O)cc(O)c2)c(OC)c1 [4e, 2-[2-methoxy-4-(prop-2-en-1-yl)phenoxy]-2-oxoethyl 3,5-dihydroxybenzoate]
86 to 88	C=CCc1ccc(OC(=O)COC(=O)/C=C/c2ccc(Cl)cc2)c(OC)c1 [6b, 2-[2-methoxy-4-(prop-2-en-1-yl)phenoxy]-2-oxoethyl(2E)-3-(4-chloroyphenyl)prop-2-enoate]

Molecular target: T1, mushroom tyrosinase
Assay: Mushroom tyrosinase inhibition assay (L-DOPA, dopachrome at 492 nm)
Format: biochemical
Parameters: purchased Sigma Chemical Co. USA
Conditions: Con: as-synthesized, before plasma treatment; cell-free; mean ± SD; read-out: Tyrosinase inhibitory activity IC50 (converted)
Method: To determine the action of ED and PAED, we checked the mushroom tyrosinase inhibitory activity in a cell-free environment. […] Moreover, after plasma treatment for different time intervals, we observed that inhibition activity of 4a, 4b, 4d and 6a was improved more as compared to without treatment. […] However, we observed the highest relative improvement in IC50 value of compound 4b among all ED compounds at 10 min plasma treatment. […] Therefore, we used the 4b and 6a compounds for further investigations, based on the decrease in IC50 value to a global minimum of the experiment after plasma treatment.
The mushroom tyrosinase was used for in vitro bioassays as described previously with some modifications. Briefly, 140 μl of phosphate buffer (20 mM, pH 6.8), 20 μl of mushroom tyrosinase (30 U/ml), and 20 μl of the inhibitor solution were placed in the wells of a 96-well plate. After pre-incubation for 10 min at room temperature, 20 μl of L-DOPA (3,4-dihydroxyphenylalanine) (0.85 mM) was added and the plate was further incubated at 25 °C for 20 min. Subsequently the absorbance of dopachrome was measured at 492 nm using a micro plate reader (OPTI Max, Tunable). Kojic acid was used as a reference inhibitor. The extent of inhibition by the test compounds was expressed as the […] necessary to achieve 50% inhibition (IC50). Each concentration was analyzed in three independent experiments run in triplicate. The IC50 values were determined by the data analysis and graphing software, Origin.
Target sequence in this assay (C7FF04 1-392): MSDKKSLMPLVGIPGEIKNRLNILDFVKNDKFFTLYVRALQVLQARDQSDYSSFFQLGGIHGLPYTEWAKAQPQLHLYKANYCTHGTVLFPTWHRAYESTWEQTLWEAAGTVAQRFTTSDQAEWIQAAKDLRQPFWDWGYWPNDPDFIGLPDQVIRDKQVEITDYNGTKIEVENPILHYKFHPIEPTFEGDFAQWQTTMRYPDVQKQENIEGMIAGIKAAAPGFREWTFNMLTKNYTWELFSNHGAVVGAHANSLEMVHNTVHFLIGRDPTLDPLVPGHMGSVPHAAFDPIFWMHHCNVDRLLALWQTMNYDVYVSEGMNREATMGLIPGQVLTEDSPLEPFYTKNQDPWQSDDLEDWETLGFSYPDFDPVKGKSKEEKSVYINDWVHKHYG

IC50 [µM]	SMILES
162	C=CCc1ccc(OC(=O)COC(=O)c2ccc(O)c(O)c2)c(OC)c1 [4d, 2-[2-methoxy-4-(prop-2-en-1-yl)phenoxy]-2-oxoethyl 3,4-dihydroxybenzoate]
53	C=CCc1ccc(OC(=O)COC(=O)c2cc(O)cc(O)c2)c(OC)c1 [4e, 2-[2-methoxy-4-(prop-2-en-1-yl)phenoxy]-2-oxoethyl 3,5-dihydroxybenzoate]
18.1	C=CCc1ccc(OC(=O)COC(=O)/C=C/c2ccc(Cl)cc2)c(OC)c1 [6b, 2-[2-methoxy-4-(prop-2-en-1-yl)phenoxy]-2-oxoethyl(2E)-3-(4-chloroyphenyl)prop-2-enoate]

Same assay, conditions: compound after 3 min N2 APPJ plasma treatment; mean ± SD; read-out: Tyrosinase inhibitory activity IC50 (converted)

IC50 [µM]	SMILES
131	C=CCc1ccc(OC(=O)COC(=O)c2ccc(O)c(O)c2)c(OC)c1 [4d, 2-[2-methoxy-4-(prop-2-en-1-yl)phenoxy]-2-oxoethyl 3,4-dihydroxybenzoate]
215	C=CCc1ccc(OC(=O)COC(=O)c2cc(O)cc(O)c2)c(OC)c1 [4e, 2-[2-methoxy-4-(prop-2-en-1-yl)phenoxy]-2-oxoethyl 3,5-dihydroxybenzoate]
85.3	C=CCc1ccc(OC(=O)COC(=O)/C=C/c2ccc(Cl)cc2)c(OC)c1 [6b, 2-[2-methoxy-4-(prop-2-en-1-yl)phenoxy]-2-oxoethyl(2E)-3-(4-chloroyphenyl)prop-2-enoate]

Same assay, conditions: compound after 5 min N2 APPJ plasma treatment; mean ± SD; read-out: Tyrosinase inhibitory activity IC50 (converted)

IC50 [µM]	SMILES
100	C=CCc1ccc(OC(=O)COC(=O)c2ccc(O)c(O)c2)c(OC)c1 [4d, 2-[2-methoxy-4-(prop-2-en-1-yl)phenoxy]-2-oxoethyl 3,4-dihydroxybenzoate]
201	C=CCc1ccc(OC(=O)COC(=O)c2cc(O)cc(O)c2)c(OC)c1 [4e, 2-[2-methoxy-4-(prop-2-en-1-yl)phenoxy]-2-oxoethyl 3,5-dihydroxybenzoate]
103	C=CCc1ccc(OC(=O)COC(=O)/C=C/c2ccc(Cl)cc2)c(OC)c1 [6b, 2-[2-methoxy-4-(prop-2-en-1-yl)phenoxy]-2-oxoethyl(2E)-3-(4-chloroyphenyl)prop-2-enoate]

Same assay, conditions: compound after 10 min N2 APPJ plasma treatment; mean ± SD; read-out: Tyrosinase inhibitory activity IC50 (converted)

IC50 [µM]	SMILES
80.9	C=CCc1ccc(OC(=O)COC(=O)c2ccc(O)c(O)c2)c(OC)c1 [4d, 2-[2-methoxy-4-(prop-2-en-1-yl)phenoxy]-2-oxoethyl 3,4-dihydroxybenzoate]
156	C=CCc1ccc(OC(=O)COC(=O)c2cc(O)cc(O)c2)c(OC)c1 [4e, 2-[2-methoxy-4-(prop-2-en-1-yl)phenoxy]-2-oxoethyl 3,5-dihydroxybenzoate]
142	C=CCc1ccc(OC(=O)COC(=O)/C=C/c2ccc(Cl)cc2)c(OC)c1 [6b, 2-[2-methoxy-4-(prop-2-en-1-yl)phenoxy]-2-oxoethyl(2E)-3-(4-chloroyphenyl)prop-2-enoate]
